Patent US4766141A, “Spiro-succinimides for treatment of diabetes complications” (Pfizer Inc., priority 1987, dated 1988)

Key:
[1] = system: sorbitol accumulation in the sciatic nerve and lens of diabetic rats; experiment: Inhibition of sorbitol accumulation in sciatic nerve and lens of streptozotocin-diabetic rats; assay type: in vivo; conditions: sacrifice at 27 h, relative to control
Description: Rel 1,3'S,3R Spiro[naphthalene-1(4H),3'-pyrrolidine]-2', 4,5'-trione-2,3-dihydro-7-fluoro-3-methyl, the product prepared according to the procedure of Example 1B, was tested for its ability to reduce or inhibit sorbitol accumulation in the sciatic nerve and lens of diabetic rats. This was done by following the procedure described by M. J. Peterson et al. in Metabolism, Vol. 28, No. 4, Suppl. 1, p. 456 (1979). A single intravenous dose of streptozotocin (85 mg./kg.) was administered to rats. The test compound was fed to the rats orally at four, seven and 24 hours after the administration of the streptozotocin. At 27 hours after streptozotocin administration, the animals were sacrificed and the sciatic nerve and lens were both removed for sorbitol assay. The control animals were given the same streptozotocin treatment, but were not given the test compound. The results obtained are expressed in terms of percent inhibition of sorbitol (i.e., relative to the control) afforded by the test compound in both the sciatic nerve and lens at three different dosage levels tested (viz., 2.5, 1.5 and 1.0 mg./kg.).

[2] = Titration with 0.5 N sodium hydroxide (pKa); assay type: physicochemical
Description: A. 12.5 g. of crude 5-carboxy-3-cyano-3-(3-fluorophenyl)-5-methylhexanoic acid dimethyl ester was combined with 62.5 ml. of concentrated sulfuric acid and was heated at 70° C. for 2.5 hours. The reaction was quenched over ice and extracted with three-100 ml. portions of ethyl acetate. The ethyl acetate solution was extracted with pH 11 aqueous sodium hydroxide. The aqueous base layer was washed with ethyl acetate, and the aqueous layer was adjusted to pH 2 with hydrochloric acid and extracted with four-100 ml. portions of ethyl acetate. After drying over anhydrous sodium sulfate, the ethyl acetate extract was concentrated in vacuo to an oil and eventually to a white foam. This was triturated for 20 hours with isopropyl alcohol-diethyl ether to give, after drying at 110° C. at reduced pressure, 610 mg. of the title compound, m.p. 200°-202° C. (shrinks), 212°-215° C. (decomp.). Anal. (C14 H12 O3 NF). Calcd. C,64.36; H,4.63; N,5.36. Found: C,64.25; H,4.60; N,5.42. IR(KBr): 3228, 1723, 1705, 1692, 1605, 1343, 1236, 1199, 1186 cm^-1. NMR 250 MHZ (CD3 SOCD3):δ11.7 (vbs, 1, NH), 7.97(m, 1), 7.31(m, 1 ), 7.13(m, 1), 3.5-2.1(m, 5), and 1.16(d, 3) ppm. […] This experiment defines the structure of the major diasteromer as the title spiro[naphthalene pyrrolidine]trione rather than the alternate indanone spiro-methyl glutarimide cyclization product. […]

[3] = target: T1, aldose reductase obtained from human placenta (Homo sapiens, UniProt P15121); experiment: Inhibition of aldose reductase obtained from human placenta; assay type: biochemical; conditions: relative to activity in absence of inhibitor, read-out: percent inhibition of aldose reductase enzyme activity
T1 construct: aldose reductase obtained from human placenta; from tissue; host or cells: human placenta
Description: Rel 1,3'S,3R Spiro[naphthalene-1(4H),3'-pyrrolidine]-2',4,5'-trione-2,3-dihydro-7-fluoro-3-methyl, the product prepared according to the procedure of Example 1B, was tested for inhibition of aldose reductase obtained from human placenta by using the procedure described by M. J. Peterson et al. in Metabolism, Vol. 28, No. 4, Suppl. 1, p. 456 (1979). The results obtained are expressed in terms of the percent inhibition of aldose reductase enzyme activity (i.e., relative to the aldose activity in the absence of inhibitor) afforded by the compound at three different molar concentration levels (viz., 10^-5, 10^-6 and 10^-7 M).

pKa ([2]; in 1:1 dioxane-water): 9.59
pKa ([2]; in water): 8.25
inhibition at 10 µM ([3]; 10^-5 M): 78%
inhibition at 1 µM ([3]; 10^-6 M): 41%
inhibition at 0.1 µM ([3]; 10^-7 M): 3%
SMILES: C[C@@H]1C[C@]2(CC(=O)NC2=O)c2cc(F)ccc2C1=O (relative stereo) [Example 1, Rel 1,3'S, 3R Spiro[naphthalene-1(4H), 3'-pyrrolidine]-2', 4,5'-trione-2,3-dihydro-7-fluoro-3-methyl]
percent inhibition of sorbitol ([1]; lens, 1.0 mg./kg. oral at 4, 7 and 24 h after streptozotocin): 39%
percent inhibition of sorbitol ([1]; lens, 1.5 mg./kg. oral at 4, 7 and 24 h after streptozotocin): 39%
percent inhibition of sorbitol ([1]; sciatic nerve, 1.0 mg./kg. oral at 4, 7 and 24 h after streptozotocin): 69%
percent inhibition of sorbitol ([1]; sciatic nerve, 1.5 mg./kg. oral at 4, 7 and 24 h after streptozotocin): 76%
